Test results from US20140194477A1, “KINASE PROTEIN BINDING INHIBITORS” (Roswell Park Cancer Institute, priority 2011, published 2014).

Experiments:
[1] = target: FAK (Homo sapiens, UniProt Q05397); assay: FAK Y397 phosphorylation; format: biochemical; conditions: in vitro
[2] = system: CD-1 mice; assay: 7-day single-dose MTD toxicologic study of Y15, oral gavage, CD-1 mice; format: in vivo
Description: (§1) • A 7-day, single-dose maximum tolerated dose toxicologic study of the chemical 1,2,4,5-Benzenetetramine tetrahydrochloride (Y-15) was performed in CD-1 mice.
(§2) • The chemical 1,2,4,5-Benzenetetramine tetrahydrochloride (Y-15) was the test article. Y-15 is a chemical grade compound available through Sigma-Aldrich. The test article was prepared in phosphate buffered saline (PBS). The test article was prepared by the sponsor and delivered to the study director prior to the study. The test article was stored in the freezer (0° C.), protected from light.
(§3) • The CD-1 [Hsd:ICR(CD-1)] albino mouse was used. The CD-1 mouse is conventionally used in toxicity tests to provide information on which human hazards can be judged, and is one of the choices of species preferred by regulatory agencies. Mice were obtained from Harlan (Frederick, Md.). • Mice were acclimated for a minimum of 2 days prior to testing. […] mice, nulliparous and non-pregnant, were used. Normal weight gain, appearance and behavior were factors used to select healthy mice for testing. Only naive animals were used. Mice were 4-7 weeks old, weighed 22-34 grams (males) and 19-24 grams (females), and were in good health at the start of the study. Mice were 5-8 weeks old, weighed 23-36 grams (males) and 20-25 grams (females) at the conclusion of the study. • Mice were randomly assigned to 8 experimental groups consisting of 3 males and 3 females which received increasing doses of the chemical Y-15. Mice were identified via cage cards, tail markings, and ear punch. Mouse identification codes contained information regarding experimental group (A=15 mg/kg dose group, B=30 mg/kg dose group, C=60 mg/kg dose group, D=90 mg/kg dose group, E=120 mg/kg dose group, F=150 mg/kg dose group, G=200 mg/kg dose group, and H=250 mg/kg dose group), sex (M=male, F=female), and animal number (1-3). Mice were fed autoclaved Harlan-Teklad sterilizable 7012 mouse/rat diet ad libitum. The feed is routinely analyzed by the manufacturer for nutritional components and environmental contaminants. Tap water acidified to a pH of 2.5-3.5 was provided in autoclaved water bottles ad libitum. Municipal water supply is analyzed by the Bureau Veritas Consumer Product Services of Buffalo, NY on an annual basis. […]
(§4) • The test article 1,2,4,5-Benzenetetramine tetrahydrochloride (Y15) was prepared in PBS and administered orally (PO) via orogastric gavage as a single dose on day 0 in the morning. […] Dosages were calculated on a “per mouse” basis, not on a mg/kg basis. […]

[3] = as above; format: in vivo; conditions: both sexes, CD-1, mouse, in vivo, po
Description: as §1, §2, §3, §4

[4] = system: CD-1 mice; assay: 7-day multiple-dose MTD toxicologic study of Y15, oral gavage, CD-1 mice; format: in vivo
Description: (§5) • A 7-day, multiple-dose maximum tolerated dose toxicologic study of the chemical 1,2,4,5-Benzenetetramine tetrahydrochloride (Y15) was performed in CD-1 mice.
(§6) • The chemical 1,2,4,5-Benzenetetramine tetrahydrochloride (Y15) was the test article. Y-15 is a chemical grade compound available through Sigma-Aldrich, The test article was prepared in phosphate buffered saline (PBS). The test article was prepared by the sponsor and delivered to the study director prior to the study. The test article was stored in the freezer (0° C.), protected from light.
(§7) • The CD-1 [Hsd:ICR(CD-1)] albino mouse was used. […] Mice were obtained from Harlan (Frederick, Md.). • Mice were acclimated for a minimum of 2 days prior to testing. 20 male and 20 female mice, nulliparous and non-pregnant, were used. Normal weight gain, appearance and behavior were factors used to select healthy mice for testing. Only naive animals were used. Mice weighed 22-35 grams (males) and 20-27 grams (females), and were in good health at the start of the study. Mice were randomly assigned to 4 experimental groups (controls, low-dose, medium-dose, and high-dose) consisting of 5 males and 5 females. Mice were identified via cage cards, tail markings, and ear punch. Mouse identification codes contained information regarding experimental group (C=control, L=low-dose, M=medium-dose, H=high-dose), sex (M=male, F=female), and animal number (1-5). […] Tap water acidified to a pH of 2.5-3.5 was provided in autoclaved water bottles ad libitum. […] Environmental conditions in the animal housing room were maintained at an ambient temperature of 70±3°, relative humidity of 30-70%, and a 12:12 light-dark cycle. Animal housing rooms were ventilated with 100% fresh, HEPA filtered air with 10-15 air changes per hour.
(§8) A 7-day multiple-dose MTD toxicology study was performed.
(§9) The test article Y-15 was prepared in PBS and administered orally (PO) via orogastric gavage as a single daily dose on days 0-6 in the morning. The test article (Y-15) was diluted with the control article (PBS) so as not to exceed a volume of 100 μL. The test article was stored in the freezer (0° C.) and allowed to thaw and come to room temperature prior to administration. Mice were randomly allocated into 4 groups (controls, low-dose, medium-dose, and high-dose) consisting of 5 males and 5 females. Dosages were calculated on a “per mouse” basis, not on a mg/kg basis. […] Mice in the high-dose group received the equivalent of a 300 mg/kg dose for a 20 g mouse (6 mg). Mice in the control group received 100 μL of the control article (PBS). Groups received the following doses, drug concentrations, and gavage volumes, as outlined in Table 2:

[5] = as above; format: in vivo; conditions: both sexes, CD-1, mouse, in vivo, oral gavage in mice, daily for 7 days
Description: as §5, §6, §7, §8, §9

[6] = system: tumor; assay: Tumor growth in vivo
[7] = system: cancer cell; assay: Cancer cell viability in vitro; format: cell-based

Chain of FAK (Q05397 whole entry): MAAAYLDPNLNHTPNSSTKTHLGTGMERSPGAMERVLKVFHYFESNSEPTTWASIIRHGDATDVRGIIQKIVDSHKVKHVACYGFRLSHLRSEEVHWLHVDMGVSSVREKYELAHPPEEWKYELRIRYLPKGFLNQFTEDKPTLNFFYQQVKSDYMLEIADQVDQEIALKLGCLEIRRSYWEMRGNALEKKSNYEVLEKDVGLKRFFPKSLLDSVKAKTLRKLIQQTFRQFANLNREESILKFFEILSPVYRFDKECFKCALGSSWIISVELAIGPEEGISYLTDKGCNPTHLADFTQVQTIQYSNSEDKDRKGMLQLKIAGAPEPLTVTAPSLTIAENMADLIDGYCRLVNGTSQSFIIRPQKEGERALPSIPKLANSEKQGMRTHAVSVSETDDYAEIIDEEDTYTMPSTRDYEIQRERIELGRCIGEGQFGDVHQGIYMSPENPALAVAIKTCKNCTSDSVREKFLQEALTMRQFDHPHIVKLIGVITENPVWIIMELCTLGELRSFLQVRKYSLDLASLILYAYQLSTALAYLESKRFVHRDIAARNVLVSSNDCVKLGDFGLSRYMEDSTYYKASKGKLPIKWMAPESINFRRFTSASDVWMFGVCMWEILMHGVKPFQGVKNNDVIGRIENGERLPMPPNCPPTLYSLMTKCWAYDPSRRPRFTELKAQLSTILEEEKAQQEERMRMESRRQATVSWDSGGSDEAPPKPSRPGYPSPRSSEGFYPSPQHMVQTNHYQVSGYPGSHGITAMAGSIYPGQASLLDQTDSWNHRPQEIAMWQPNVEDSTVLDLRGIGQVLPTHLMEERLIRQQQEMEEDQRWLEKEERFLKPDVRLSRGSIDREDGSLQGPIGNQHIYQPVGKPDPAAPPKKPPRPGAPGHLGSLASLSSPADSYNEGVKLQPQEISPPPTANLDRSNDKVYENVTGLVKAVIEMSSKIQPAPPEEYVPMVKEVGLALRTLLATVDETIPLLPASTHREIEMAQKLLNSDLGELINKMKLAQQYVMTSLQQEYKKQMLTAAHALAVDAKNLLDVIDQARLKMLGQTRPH

Question: Which results are given for Cl.Cl.Cl.Cl.Nc1cc(N)c(N)cc1N [Y15, 1,2,4,5-benzenetetraamine tetrahydrochloride]?
Answer: Y397-phosphorylation of FAK in vitro [1]: directly and specifically decreases; maximal tolerated dose (summary statement) ([2]; delivery once /week, duration 7 days): 250 mg/kg; toxicity findings, other dose groups ([2]; single oral gavage dose, 15-200 mg/kg groups): no mortality, adverse clinical signs, or decrement in body weight greater than 10%; mortality, highest dose group ([2]; single oral gavage dose, group H 250 mg/kg): mortality was seen; MTD at 7 days [3]: 200 mg/kg; maximal tolerated dose (summary statement) ([4]; delivery 5 days/week, duration 7 days): 200 mg/kg; toxicity findings, medium-dose group ([4]; oral gavage daily days 0-6, 100 mg/kg): no mortality, clinical signs of toxicity, or decrement in mean body weight; toxicity findings, high-dose group ([4]; oral gavage daily days 0-6, 200 mg/kg): weight loss, severe clinical signs of abdominal distention, and mortality due to gastrointestinal dilatation; MTD at 7 days [5]: ≥ 100 mg/kg; NOAEL at 7 days ([5]; read-out: no observable adverse effects level (NOAEL)): 100 mg/kg; tumor growth in vivo [6]: blocks tumor growth in vivo; cancer cell viability in vitro [7]: inhibits cancer cell viability in vitro
